Data taken from publication PMC3701955 (Bioorganic & medicinal chemistry, 2012).

Tests used:
human V1aR = human V1aR (Homo sapiens, UniProt P37288); format: binding; conditions: competition with [3H]-AVP, NIMH PDSP
[1] = molecular target: human vasopressin receptor V2 (Homo sapiens, UniProt P30518); format: binding; conditions: competition with [3H]-AVP, NIMH PDSP
[2] = molecular target: T1, human vasopressin receptor V1b (Homo sapiens, UniProt P47901); format: binding; conditions: competition with [3H]-AVP, NIMH PDSP
T1 sequence (P47901 1-424): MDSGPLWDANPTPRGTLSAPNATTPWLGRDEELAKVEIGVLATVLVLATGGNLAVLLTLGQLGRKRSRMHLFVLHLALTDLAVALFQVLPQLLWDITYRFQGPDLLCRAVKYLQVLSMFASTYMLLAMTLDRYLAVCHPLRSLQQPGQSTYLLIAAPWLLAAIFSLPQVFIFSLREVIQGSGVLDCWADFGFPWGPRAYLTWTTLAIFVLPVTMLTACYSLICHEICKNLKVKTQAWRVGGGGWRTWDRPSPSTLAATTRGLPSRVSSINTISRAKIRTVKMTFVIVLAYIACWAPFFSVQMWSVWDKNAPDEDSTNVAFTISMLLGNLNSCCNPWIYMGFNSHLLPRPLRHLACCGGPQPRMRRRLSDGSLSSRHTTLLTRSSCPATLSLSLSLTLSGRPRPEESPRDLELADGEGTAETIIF

[3] = cited from earlier work

Sequence of human V1aR (P37288 whole entry): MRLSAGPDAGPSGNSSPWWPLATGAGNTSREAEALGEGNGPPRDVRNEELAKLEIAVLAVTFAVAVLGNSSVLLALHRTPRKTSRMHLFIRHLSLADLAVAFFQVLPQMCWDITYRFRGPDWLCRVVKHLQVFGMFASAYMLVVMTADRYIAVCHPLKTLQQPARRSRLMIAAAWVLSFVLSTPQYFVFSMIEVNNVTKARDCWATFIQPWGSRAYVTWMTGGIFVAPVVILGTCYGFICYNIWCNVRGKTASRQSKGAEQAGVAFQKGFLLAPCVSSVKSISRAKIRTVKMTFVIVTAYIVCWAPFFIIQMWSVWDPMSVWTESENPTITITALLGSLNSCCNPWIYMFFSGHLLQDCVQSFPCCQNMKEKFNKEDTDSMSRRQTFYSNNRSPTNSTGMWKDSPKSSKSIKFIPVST
Sequence of human vasopressin receptor V2 (P30518 whole entry): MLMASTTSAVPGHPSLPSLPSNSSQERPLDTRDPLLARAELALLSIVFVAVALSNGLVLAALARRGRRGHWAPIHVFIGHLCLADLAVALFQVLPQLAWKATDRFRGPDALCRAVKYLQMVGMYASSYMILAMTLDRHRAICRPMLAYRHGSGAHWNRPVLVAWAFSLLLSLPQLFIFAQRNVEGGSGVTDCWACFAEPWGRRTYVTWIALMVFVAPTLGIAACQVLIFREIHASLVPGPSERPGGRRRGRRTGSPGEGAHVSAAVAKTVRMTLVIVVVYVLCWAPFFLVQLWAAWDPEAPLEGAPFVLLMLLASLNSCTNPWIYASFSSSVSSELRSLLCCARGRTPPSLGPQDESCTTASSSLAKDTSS

Row | Compound | Ki Human V1aR (human V1aR) | Ki Human V2 [1] | Ki Human V1b [2] | brain penetration [3]
1 | CS(=O)(=O)N1CCC(Oc2ccc(CC(=O)N3CCC(N4C(=O)CCc5ccccc54)CC3)c(O)c2)CC1 [Compound 13, 1-(1-(2-(2-Hydroxy-4-(1-(methylsulfonyl)piperidin-4-yloxy)phenyl)acetyl)piperidin-4-yl)-3,4-dihydroquinolin-2(1H)-one] | no detectable affinity | no detectable affinity | no detectable affinity | 
2 | COc1cc(OC2CCN(C(C)=O)CC2)ccc1C(=O)N1CCC(N2C(=O)OCc3ccccc32)CC1 [Compound L-371257] |  |  |  | very poor brain penetrant
